Residue numbers refer to the chain shown, from its start.
Legend:
[1] = biological target: T1, T217E Aurora A (Homo sapiens, UniProt O14965, T217E); test: Thermal shift assay (differential scanning fluorimetry); format: binding; details: 5 mM ATP, 5 mM CoA or 0.1 mM MLN8237
T1 construct: For enzyme and DSF assays, full-length human Aurora A and Aurora B and 1–43 TPX2 were produced; made in house; host or cells: E. coli
T1 sequence (O14965 1-403 T217E): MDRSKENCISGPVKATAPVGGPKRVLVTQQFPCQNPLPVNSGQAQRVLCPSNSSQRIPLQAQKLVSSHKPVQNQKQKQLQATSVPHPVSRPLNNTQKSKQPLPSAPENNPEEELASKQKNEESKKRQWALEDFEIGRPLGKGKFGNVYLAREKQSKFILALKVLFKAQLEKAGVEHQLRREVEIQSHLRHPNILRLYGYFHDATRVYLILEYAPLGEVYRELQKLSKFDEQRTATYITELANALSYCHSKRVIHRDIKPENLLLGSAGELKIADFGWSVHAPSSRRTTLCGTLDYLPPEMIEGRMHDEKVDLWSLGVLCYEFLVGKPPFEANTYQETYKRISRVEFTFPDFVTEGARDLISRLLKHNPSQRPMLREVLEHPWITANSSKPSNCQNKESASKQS
Protocol: (§1) Asp274Asn and Thr217Glu Aurora A mutants were generated by PCR-site directed mutagenesis, expressed and purified as described previously. Cys290Ala Aurora A was generated using standard procedures, and purified as described.
(§2) Thermal-shift assays were performed with a StepOnePlus Real-Time PCR machine (Life Technologies) using Sypro-Orange dye (Invitrogen) and thermal ramping (0.3 °C in step intervals between 25 and 94 °C). All proteins were diluted to a final concentration of 5 μM in 50 mM Tris/HCl, pH 7.4 and 100 mM NaCl in the presence or absence of the indicated concentrations of ligand (final DMSO concentration no higher than 4 % v/v). CoA, dephosphoCoA or kinase inhibitors diluted from 10 mM DMSO stocks were assayed as described previously. Normalized data were processed using the Boltzmann equation to generate sigmoidal denaturation curves, and average Tm/ΔTm values calculated as previously described using GraphPad Prism software.

[2] = biological target: T2, WT Aurora A (T288 phosphorylated, active) (Homo sapiens, UniProt O14965); test: as above; format: binding; details: 5 mM ATP, 5 mM CoA or 0.1 mM MLN8237; for CoA dependent on non-reducing conditions
T2 construct: Bacterially expressed full-length His-Aurora A was used to determine the IC50 value for CoA; made in house; host or cells: E. coli BL21 (DE3) pLysS
T2 sequence (O14965 1-403): T1 sequence (O14965 1-403 T217E) with E217T
Protocol: as §1, §2

Compound: CC(C)(COP(=O)(O)OP(=O)(O)OC[C@H]1O[C@@H](n2cnc3c(N)ncnc32)[C@H](O)[C@@H]1OP(=O)(O)O)[C@@H](O)C(=O)NCCC(=O)NCCS [CoA, Coenzyme A]
- Ligand-induced thermal shift [1]: completely abolished
- Change in thermal stability (ΔTm) [2]: marked change in thermal stability

— publication PMC6812009, “Covalent Aurora A regulation by the metabolic integrator coenzyme A” (Redox Biology, 2019)
